The text below walks through data of patent US10532109B2, “Peptide-DNA chimeras for treatment of HER overexpressing cancers” (ARIZONA BOARD OF REGENTS ON BEHALF OF ARIZONA STATE …, priority 2016, dated 2020).

Entries after “also recorded” stand apart in the source; their conditions may differ. Where two headings read alike, the source gives them in different places.

As usually defined, the inhibition is the percentage by which the read-out fell short of the control.

One test deals with MDA-MB-231 cells. The test is described as follows: HER2 binding assay (fluorescence microscopy), MDA-MB-231. The test is classed as cell-based, human. To be noted: 1 μM; 1 hour. On the procedure: (§1) BT474 cells and MDA-MB-231 cells were grown on glass bottom microwell disks at a cell density of approximately 10,000 cells/well at 37° C. for 48 hours. […] Then the cells were stained using 2.5 μg/mL DAPI (Invitrogen) for 30 minutes after the cells were rinsed with phosphate buffered saline (PBS) for two times. Finally, the cells were fixed with 4% paraformaldehyde for 10 minutes. The fluorescent images were obtained using a fluorescence microscope (Nikon Ti-U, Japan) with red and green filters. Thereafter, all images were recorded and the target cells counted using a 40× oil objective. To ensure accurate intensity measurements, the exposure time (3000 ms) and laser time were kept the same. The mean pixel intensity within the region of interest was calculated. Data are reported as the mean of three independent experiments, each run in quintuplicate. The data was expressed as mean±SD.

A further test has as its system BT474 cells. Description: HER2 binding assay (fluorescence microscopy), BT474. Type of test: cell-based, human. The conditions noted are these: 1 μM; 1 hour. On the procedure:
as §1

For test [1], the system named is BT474 human breast cancer cells (overexpression of HER2). Description: Cancer cell inhibition assay (MTT), BT474. To be noted: for inhibition at 0.32 µM: BT-474, 320 nM doxorubicin, free or as 6.4 nM IV (1:50 III-doxorubicin); for inhibition at 0.32 µM / inhibition at 0.64 µM: read-out: inhibition of BT474 cell growth; for inhibition at 0.64 µM: BT-474, 640 nM doxorubicin, free or as 12.8 nM IV. The test is classed as cell-based.
Description: Exponentially growing BT474 cells and MDA-MB-231 cells were harvested and plated in 96-well plates at a concentration of 2×10^4 cells/well for BT474 cells and 5×10^4 cells/well for MDA-MB231 cells. […] Then 20 μL of MTT (5 mg/mL) was added to each well and the plates were incubated at 37° C. for 4 hours. The supernatant was discarded, and 100 μL of DMSO was added to each well. The absorbance was recorded at 490 nm after 15 minutes. Inhibition of cell growth was obtained by the following formula: Inhibition (%)=(ODTreatment−ODbackground)/(ODNagative control−ODbackground)×100%

For test [2], the system named is MDA-MB-231 human breast cancer cells (low expression of HER2 receptor). Description: Cancer cell inhibition assay (MTT), MDA-MB-231. To be noted: 48, 72, 96 h. The test is classed as cell-based. On the procedure: BT474 human breast cancer cells (ATCC® HTB-20™, overexpression of HER2) and MDA-MB-231 human breast cancer cells (ATCC® HTB-26™, low expression of HER2 receptor) were cultured at 37° C. in a 5% CO2 atmosphere and grown in Gibco® RPMI 1640 medium supplemented with 10% fetal bovine serum (FBS) and 1% antibiotic-antimycotic mix antibiotic supplement before use.
Exponentially growing BT474 cells and MDA-MB-231 cells were harvested and plated in 96-well plates at a concentration of 2×10^4 cells/well for BT474 cells and 5×10^4 cells/well for MDA-MB231 cells. […] Then 20 μL of MTT (5 mg/mL) was added to each well and the plates were incubated at 37° C. for 4 hours. The supernatant was discarded, and 100 μL of DMSO was added to each well. The absorbance was recorded at 490 nm after 15 minutes. Inhibition of cell growth was obtained by the following formula: […]
Data are reported as the mean of three independent experiments, each run in quintuplicate.

`COc1cccc2c1C(=O)c1c(O)c3c(c(O)c1C2=O)C[C@@](O)(C(=O)CO)C[C@@H]3O[C@H]1C[C@H](N)[C@H](O)[C@H](C)O1` [doxorubicin]: the “binding ability to MDA-MB-231 cells (fluorescence on cell surface, in words)” value with MDA-MB-231 cells was “relatively weak fluorescence intensity; also recorded: relatively weak ability”. In addition, the “binding ability to BT474 cells (fluorescence on cell surface, in words)” value with BT474 cells is on record as “relatively weak fluorescence intensity; also recorded: relatively weak ability”. Further, in the test with BT474 cells, the “binding selectivity between BT474 and MDA-MB-231 cells” value is listed as “did not show any binding selectivity; also recorded: did not shown any selectivity”. Moreover, the figures for the inhibition at 0.32 µM in test [1] (48 h), in test [1] (72 h) and in test [1] (96 h) were 19%, 43% and 44%, respectively. In addition, the values for the inhibition at 0.64 µM in test [1] (48 h), in test [1] (72 h) and in test [1] (96 h) were 36%, 68% and 78%, respectively. Besides, the inhibition at 0.16 µM in test [1] (BT-474, read-out: average inhibition of BT474 cell growth) stood at 10%. Moreover, the “fold higher average percent inhibition of MDA-MB-231 by doxorubicin than IV” value in test [2] (160 nM doxorubicin concentration) was 1.0-2.3 fold; in test [2] (320 nM doxorubicin concentration), 1.3-2.0 fold; in test [2] (640 nM doxorubicin concentration), 1.6-2.0 fold.
